# Source: US6620961B1, “Biarylalkylenecarbamic acid derivatives and bacteriocides for agricultural and horticultural use” (Kumiai Chemical Industry Co., Ltd., priority 1997, dated 2003)
# Columns and labels:
# Format in all cases: in vivo
# Parameters in all cases: key: A: No diseased area; B: Diseased area of less than 25%; C: Diseased area of at least 25% but less than 50%; Diseased area of at least 50%
# [1] = system: Pseudoperonospora cubensis; assay: Test for Preventive Effect on Cucumber Downy Mildew; settings: cucumber seedlings, wettable powder at 500 ppm active ingredient, 7 days after inoculation
# Procedure: Test for Preventive Effect on Cucumber Downy Mildew 9 cucumber seeds (variety: Sagami-hanpaku) were sown in each 9 cmx9 cm polyvinyl chloride pot and grown in a greenhouse for 7 days. […] Then, the seedlings were inoculated with Pseudoperonospora cubensis zoosporangia in suspension by spraying and immediately placed in a moist chamber at 22° C. for 24 hours. Thereafter, the seedlings were placed in a greenhouse. 7 days after the inoculation, the total diseased area in each pot was observed and evaluated on the basis of the standards shown in Table 59. [table]
# Venturia inaequalis = assay: Test for Preventive Effect on Apple Scab; settings: 14 days after inoculation; for Evaluation (diseased areas of the upper two of the inoculated leaves): apple seedlings, wettable powder at 500 ppm active ingredient, preventive; for Evaluation (diseased area of the upper two inoculated leaves): apple seedlings (Kogyoku), 500 ppm active ingredient, 20 ml per pot
# Procedure: [table] Test for Preventive Effect on Apple Scab 5 apple seeds (variety: Kogyoku) were sown in each 9 cm×9 cm polyvinyl chloride pot and grown in a greenhouse for 20 days. […] Then, the seedlings were inoculated with Venturia inaequalis spores in suspension by spraying and immediately placed in a moist chamber at 22° C. for 48 hours. Thereafter, the seedlings were placed in a greenhouse for development of the disease. 14 days after the inoculation, the diseased areas of the upper two of the inoculated leaves were observed and evaluated on the basis of the standards shown in Table 59.
# Erysiphe graminis = assay: Test for Preventive Effect on Wheat Powdery Mildew; settings: wheat seedlings (Norin-61-go), 500 ppm active ingredient, 10 ml per pot, 10 days after inoculation
# Procedure: [table] Test for Preventive Effect on Wheat Powdery Mildew 9 wheat seeds (variety: […] Then, the seedlings were inoculated with […] graminis spores in suspension and placed in a greenhouse at 25 to 30° C. 10 days after the inoculation, the total diseases area of the first leaves in each pot was observed and evaluated on the basis of the standards shown in Table 59. The results are shown in Tables 67 to 71.
# Botrytis cinerea = assay: Test for Preventive Effect on Cucumber Gray Mold; settings: cotyledonary cucumber seedlings (Sagami-hanziro), 500 ppm active ingredient, 10 ml per pot, 3 days after inoculation
# Procedure: [table] Test for Preventive Effect on Cucumber Gray Mold 9 cucumber seeds (variety: Sagami-hanziro) were sown in each 9 cm−9 cm polyvinyl chloride pot and grown in a greenhouse for 7 days. […] Then, the seedlings were inoculated with milled Botrytis cinerea hyphae in solution by spraying and immediately placed in a moist chamber at 22° C. 3 days after the inoculation, the total diseased area in each pot was observed and evaluated on the basis of the standards shown in Table 59.
SMILES,Evaluation (total diseased area in each pot) [1],Evaluation (diseased areas of the upper two of the inoculated leaves) (Venturia inaequalis),Evaluation (total diseased area of the first leaves in each pot) (Erysiphe graminis),Evaluation (diseased area of the upper two inoculated leaves) (Venturia inaequalis),Evaluation (total diseased area in each pot) (Botrytis cinerea)
COC(=O)NCc1cccc(-c2ccc(F)cc2)c1 [1-7],B (Diseased area of less than 25%),A,A,–,–
COC(=O)NCc1cccc(-c2ccc(C)c(C)c2)c1 [1-125],A,A,A,–,–
COC(=O)NCc1cc(-c2cccc(C(C)C)c2)ccc1F [2-113],B (Diseased area of less than 25%),A,A,–,–
COC(=O)NCc1cc(C)cc(-c2ccccc2)c1 [2-91],B (Diseased area of less than 25%),A,A,–,–
COC(=O)NC(C)c1cccc(-c2ccc(F)c(Cl)c2)c1 (racemic) [3-21],A,–,B (Diseased area of less than 25%),A,–
COC(=O)NCc1cc(-c2ccc(Br)cc2)ccc1Cl [2-453],–,–,A,A,A
COC(=O)NC(C)c1cccc(-c2ccc(Cl)cc2)c1 (racemic) [3-5],–,–,B (Diseased area of less than 25%),A,B (Diseased area of less than 25%)
COC(=O)NCc1cccc(-c2cccc(C(F)(F)F)c2)c1 [1-34],A,A,A,–,–
COC(=O)NCc1cccc(-c2ccccc2C(F)(F)F)c1 [1-33],B (Diseased area of less than 25%),A,A,–,–
COC(=O)NCc1cc(-c2cccc(C)c2)ccc1F [2-109],A,A,A,–,–
COC(=O)NCc1cccc(-c2ccc(OC)cc2)c1 [1-42],–,A,B (Diseased area of less than 25%),–,B (Diseased area of less than 25%)
COC(=O)NC(C)c1cccc(-c2ccccc2)c1 (racemic) [3-1],A,–,B (Diseased area of less than 25%),A,–
COC(=O)NCc1cc(-c2ccc(OC)c(OC)c2)ccc1Cl [2-455],–,–,B (Diseased area of less than 25%),A,B (Diseased area of less than 25%)
COC(=O)NC(C)c1cc(-c2ccc(F)cc2)ccc1F (racemic) [3-28],–,–,B (Diseased area of less than 25%),A,B (Diseased area of less than 25%)
COC(=O)NC(C)c1cc(-c2ccc(Cl)cc2)ccc1F (racemic) [3-30],–,–,B (Diseased area of less than 25%),B (Diseased area of less than 25%),B (Diseased area of less than 25%)
COC(=O)NC(C)c1cccc(-c2cccc(C(F)(F)F)c2)c1 (racemic) [3-16],A,–,A,A,–
COC(=O)NCc1cc(-c2ccccc2)ccc1F [2-102],A,A,A,–,–
COC(=O)NCc1cc(-c2cccc(O)c2)ccc1Cl [2-448],–,–,A,A,A

SMILES,Evaluation (total diseased area in each pot) [1],Evaluation (diseased areas of the upper two of the inoculated leaves) (Venturia inaequalis),Evaluation (total diseased area of the first leaves in each pot) (Erysiphe graminis),Evaluation (diseased area of the upper two inoculated leaves) (Venturia inaequalis),Evaluation (total diseased area in each pot) (Botrytis cinerea)
COC(=O)NCc1cc(-c2ccc(C)cc2)ccc1I [2-551],–,–,B (Diseased area of less than 25%),A,B (Diseased area of less than 25%)
COC(=O)NCc1cc(-c2ccc(C)cc2)ccc1F [2-110],A,A,B (Diseased area of less than 25%),–,–
COC(=O)NC(C)c1cccc(-c2cccc(C)c2)c1 (racemic) [3-6],A,–,A,A,–
COC(=O)NCc1cc(-c2ccc(Cl)cc2)ccc1OC [2-332],–,–,B (Diseased area of less than 25%),A,B (Diseased area of less than 25%)
COC(=O)NCc1cccc(-c2cccc(Cl)c2)c1 [1-3],A,A,A,–,–
COC(=O)NCc1cc(-c2cccc(C)c2)ccc1OC [2-333],A,–,B (Diseased area of less than 25%),A,–
COC(=O)NCc1cccc(-c2cc(Cl)cc(Cl)c2)c1 [1-119],B (Diseased area of less than 25%),A,A,–,–
COC(=O)NCc1cc(-c2cccc(Cl)c2)ccc1F [2-106],A,A,A,–,–
COC(=O)NCc1cccc(-c2cccc(OC)c2)c1 [1-41],A,A,A,–,–
COC(=O)NCc1cc(C)cc(-c2cccc(C(F)(F)F)c2)c1 [2-98],B (Diseased area of less than 25%),A,A,–,–
COC(=O)N(Cc1cccc(-c2cccc(C)c2)c1)OC [1-266],B (Diseased area of less than 25%),A,A,–,–
COC(=O)NCc1ccc(OC)c(-c2ccccc2)c1 [2-65],–,B (Diseased area of less than 25%),–,–,B (Diseased area of less than 25%)
CNC(=O)NCc1cccc(-c2ccccc2)c1 [1-253],B (Diseased area of less than 25%),–,–,–,–
COC(=O)NCc1cccc(-c2cccc([N+](=O)[O-])c2)c1 [1-103],B (Diseased area of less than 25%),A,–,–,–
COC(=O)NCc1cc(-c2ccc(Cl)cc2)ccc1F [2-107],A,A,A,–,–
COC(=O)NCc1cc(-c2cccc(C(F)(F)F)c2)ccc1OC(F)F [2-365],–,–,B (Diseased area of less than 25%),A,–
"COC(=O)NCc1cccc(-c2ccc(Cl)c(Cl)c2)c1 [1-118, Methyl N-[3-(3,4-dichlorophenyl)benzyl]carbamate]",B (Diseased area of less than 25%),A,A,–,–
COC(=O)NCc1cc(-c2ccc(F)c(F)c2)ccc1F [2-412],–,–,A,A,–
